From ChEMBL document CHEMBL1152025, “Enzymatic asymmetric synthesis of (2R, 4R, 5S)-2-amino-4,5-(1,2-cyclohexyl)-7-phosphonoheptanoic acid, a potent, selective and competitive NMDA antagonist” (Bioorg Med Chem Lett, 1993) come the findings set out here.

Molecules are shown by their SMILES.

Assay [1] can be described thus: Tested for the ability to inhibit the NMDA induced seizures against NMDA antagonist by intraperitoneal administration. The format is functional. The settings on record: ip.
A short description of assay [2]: Tested for the ability to inhibit the maximal electroshock induced seizures against NMDA antagonist by intraperitoneal administration. In kind it is functional. The following applies: ip.
For assay [3], the target named is Glutamate [NMDA] receptor. Kind of assay: Tested for the inhibitory activity by the inhibition of excitatory L-[3H]Glutamate binding to NMDA recognition sites. The format is protein-complex assay.
The nature of assay [4]: Tested for the ability to inhibit the pentylenetetrazole induced seizures against NMDA antagonist by intraperitoneal administration. The format is functional. The following applies: ip.
In assay [5] the target is Glutamate [NMDA] receptor. In words: Tested for the inhibitory activity by the inhibition of excitatory [3H]CGS-19,755 binding to NMDA recognition sites. In kind it is protein-complex assay.

With `N[C@H](C[C@H]1CCCC[C@H]1CCP(=O)(O)O)C(=O)O`, the ED50 in assay [1] worked out at 2.68 mg/kg; in assay [2], 13.4 mg/kg; in assay [4], 4.51 mg/kg. For the same compound, the concentration for half-maximal inhibition (IC50) came to 607 nM in assay [3] and 148 nM in assay [5].
With `N[C@@H](C[C@@H]1CCCC[C@@H]1CCP(=O)(O)O)C(=O)O`, the values for the half-inhibitory concentration (IC50) in assay [3] and in assay [5] were 6460 nM and 239 nM, respectively.
On to `N[C@H](C[C@@H]1CCCC[C@@H]1CCP(=O)(O)O)C(=O)O`, for which the IC50 in assay [3] worked out at 3130 nM; in assay [5], 555 nM.
In the same order, the values of `N[C@@H](C[C@H]1CCCC[C@H]1CCP(=O)(O)O)C(=O)O` are 2590 nM and 264 nM.
On to `NC(CC1CCCCC1CCP(=O)(O)O)C(=O)O` (stereo unspecified), for which the values for the 50% effective dose (ED50) in assay [1], in assay [2] and in assay [4] were 12.4 mg/kg, above 15 mg/kg and 6.02 mg/kg, respectively. Further, the IC50 in assay [3] worked out at 1600 nM; in assay [5] it was 976 nM.
For the compound `O=C(O)[C@H]1CN(CCCP(=O)(O)O)CCN1`, the results for the half-maximal inhibitory concentration (IC50) in assay [3] and in assay [5] were 321 nM and 86 nM, respectively.
Regarding `O=C(O)[C@@H]1C[C@H](CP(=O)(O)O)CCN1` (single isomer, unassigned) [SELFOTEL], the figures for the ED50 in assay [1], in assay [2] and in assay [4] were 2.64 mg/kg, 12.9 mg/kg and 29 mg/kg, respectively.
With `CC(=CC(N)C(=O)O)CP(=O)(O)O` (stereo unspecified) [CGP-37849], the 50% effective dose (ED50) in assay [1] was 3.41 mg/kg; in assay [2] it was 3.64 mg/kg; in assay [4], above 10 mg/kg. Also, the IC50 in assay [3] came out at 25.7 nM; in assay [5] it was 18 nM.
